Results as given in US11591341B2 (ALIGOS THERAPEUTICS, INC., priority 2019, dated 2023).

System: HBV
Test: HBV-DNA Antiviral Assay Using HepG2.117 Cells (intracellular HBV DNA by qPCR)
Type: cell-based, hepatitis B virus (genotype D)
Details: Hepatitis B virus, HepG2.117
Outline: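 HepG2.117 cells (genotype D HBV, Tet-off) were induced by doxycycline withdrawal and treated for 3 days with 9 concentrations in 4-fold dilution, 2% DMSO final. Intracellular HBV DNA was measured by qPCR against a standard curve, with ATPlite viability read in parallel. EC50, EC90 and CC50 came from fits against the DMSO control.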

In the case of `COc1ccc(-n2c(C(=O)NCc3ccc(C(F)(F)F)cc3)c3n(c2=O)CCN(C(=O)c2ccc(Br)c(Cl)c2)C3)cc1` [Example 140, 7-(4-bromo-3-chloro-benzoyl)-2-(4-methoxyphenyl)-3-oxo-N-[[4-(trifluoromethyl)phenyl]methyl]-6,8-dihydro-5H-imidazo[1,5-a]pyrazine-1-carboxamide], the EC50 is reported as 500 to 5000 nM.
With `COc1ccc(-n2c(C(=O)NC(C)c3ccc(F)cc3)c3n(c2=O)CCN(C(=O)c2ccc(Br)c(Cl)c2)C3)cc1` (centres unmarked) [Example 141, 7-(4-bromo-3-chloro-benzoyl)-N-[1-(4-fluorophenyl)ethyl]-2-(4-methoxyphenyl)-3-oxo-6,8-dihydro-5H-imidazo[1,5-a]pyrazine-1-carboxamide] the EC50 was 100 to 500 nM.
In the case of `COc1ccc(-n2c(C(=O)NCc3ccc(C(C)C)cc3)c3n(c2=O)CCN(C(=O)c2ccc(Br)c(Cl)c2)C3)cc1` [Example 142, 7-(4-bromo-3-chloro-benzoyl)-N-[(4-isopropylphenyl)methyl]-2-(4-methoxyphenyl)-3-oxo-6,8-dihydro-5H-imidazo[1,5-a]pyrazine-1-carboxamide], the EC50 is reported as 100 to 500 nM.
With `COc1ccc(-n2c(C(=O)NCc3ccc(OC)cc3OC)c3n(c2=O)CCN(C(=O)c2ccc(Br)c(Cl)c2)C3)cc1` [Example 143, 7-(4-bromo-3-chloro-benzoyl)-N-[(2,4-dimethoxyphenyl)methyl]-2-(4-methoxyphenyl)-3-oxo-6,8-dihydro-5H-imidazo[1,5-a]pyrazine-1-carboxamide] the EC50 was < 100 nM.
Compound `COc1ccc(-n2c(C(=O)NCc3ccc(OC(F)F)cc3)c3n(c2=O)CCN(C(=O)c2ccc(Br)c(Cl)c2)C3)cc1` [Example 148, 7-(4-bromo-3-chloro-benzoyl)-N-[[4-(difluoromethoxy)phenyl]methyl]-2-(4-methoxyphenyl)-3-oxo-6,8-dihydro-5H-imidazo[1,5-a]pyrazine-1-carboxamide] has an EC50 of 100 to 500 nM.
For `COc1ccc(-n2c(C(=O)NCc3cccc(C(F)(F)F)c3)c3n(c2=O)CCN(C(=O)c2ccc(Br)c(Cl)c2)C3)cc1` [Example 152, 7-(4-bromo-3-chloro-benzoyl)-2-(4-methoxyphenyl)-3-oxo-N-[[3-(trifluoromethyl)phenyl]methyl]-6,8-dihydro-5H-imidazo[1,5-a]pyrazine-1-carboxamide], the EC50 was 100 to 500 nM.
With `COc1ccc(-n2c(C(=O)NCc3cc(OC)cc(OC)c3)c3n(c2=O)CCN(C(=O)c2ccc(Br)c(Cl)c2)C3)cc1` [Example 153, 7-(4-bromo-3-chloro-benzoyl)-N-[(3,5-dimethoxyphenyl)methyl]-2-(4-methoxyphenyl)-3-oxo-6,8-dihydro-5H-imidazo[1,5-a]pyrazine-1-carboxamide] the EC50 was 100 to 500 nM.
For `COc1ccc(-n2c(C(=O)NCc3ccccc3C#N)c3n(c2=O)CCN(C(=O)c2ccc(Br)c(Cl)c2)C3)cc1` [Example 154, 7-(4-bromo-3-chloro-benzoyl)-N-[(2-cyanophenyl)methyl]-2-(4-methoxyphenyl)-3-oxo-6,8-dihydro-5H-imidazo[1,5-a]pyrazine-1-carboxamide], the EC50 was 100 to 500 nM.
For `COc1ccc(-n2c(C(=O)NCc3cccc(OC)c3C)c3n(c2=O)CCN(C(=O)c2ccc(Br)c(Cl)c2)C3)cc1` [Example 155, 7-(4-bromo-3-chloro-benzoyl)-N-[(3-methoxy-2-methyl-phenyl)methyl]-2-(4-methoxyphenyl)-3-oxo-6,8-dihydro-5H-imidazo[1,5-a]pyrazine-1-carboxamide], the EC50 was 100 to 500 nM.
`COc1ccc(-n2c(C(=O)NCc3ccc(OC(C)C)cc3)c3n(c2=O)CCN(C(=O)c2ccc(Br)c(Cl)c2)C3)cc1` [Example 156, 7-(4-bromo-3-chloro-benzoyl)-N-[(4-isopropoxyphenyl)methyl]-2-(4-methoxyphenyl)-3-oxo-6,8-dihydro-5H-imidazo[1,5-a]pyrazine-1-carboxamide] was tested, and the EC50 was 100 to 500 nM.
For `COc1ccc(-n2c(C(=O)NCc3ncccn3)c3n(c2=O)CCN(C(=O)c2ccc(Br)c(Cl)c2)C3)cc1` [Example 157, 7-(4-bromo-3-chloro-benzoyl)-2-(4-methoxyphenyl)-3-oxo-N-(pyrimidin-2-ylmethyl)-6,8-dihydro-5H-imidazo[1,5-a]pyrazine-1-carboxamide], the EC50 was > 5000 nM.
